From US5916873A, “Teicoplanin derivatives” (Eli Lilly and Company, priority 1998, dated 1999)
Converted amounts (≈) assume the structure as drawn.

Columns and labels:
[1] = system: vancomycin-resistant enterococci; test: mean geometric MIC, vancomycin-resistant enterococci, broth micro-dilution; assay type: cell-based, Enterococcus faecium and Enterococcus faecalis; conditions: Table 3, representative vancomycin-resistant enterococci
Experimental: (§1) The antibacterial efficacy of the present teicoplanin derivatives is illustrated by the following tables. The minimal inhibitory concentrations (MICs) were determined using a standard broth micro-dilution assay.

[2] = system: vancomycin-sensitive enterococci; test: mean geometric MIC, vancomycin-sensitive enterococci, broth micro-dilution; assay type: cell-based, Enterococcus faecium and Enterococcus faecalis; conditions: Table 3, representative vancomycin-sensitive enterococci
Experimental: as §1

[3] = system: E. f. 180-1; test: standard broth micro-dilution MIC; assay type: cell-based; conditions: Table 2B; strain 180-1
Experimental: as §1

[4] = system: E. f. 180; test: standard broth micro-dilution MIC; assay type: cell-based; conditions: Table 2B; strain 180
Experimental: as §1

[5] = system: E. f. 2041; test: standard broth micro-dilution MIC; assay type: cell-based; conditions: Table 2B; strain 2041
Experimental: as §1

[6] = system: EC14; test: standard broth micro-dilution MIC; assay type: cell-based; conditions: Table 2C; strain EC14
Experimental: as §1

[7] = system: S. aureus 446; test: standard broth micro-dilution MIC; assay type: cell-based; conditions: Table 2A; strain 446
Experimental: as §1

[8] = system: S. aureus 447; test: standard broth micro-dilution MIC; assay type: cell-based; conditions: Table 2A; strain 447
Experimental: as §1

[9] = system: S. aureus 489; test: standard broth micro-dilution MIC; assay type: cell-based; conditions: Table 2A; strain 489
Experimental: as §1

[10] = system: S. aureus 491; test: standard broth micro-dilution MIC; assay type: cell-based; conditions: Table 2A; strain 491
Experimental: as §1

[11] = system: S. aureus S13E; test: standard broth micro-dilution MIC; assay type: cell-based; conditions: Table 2A; strain S13E
Experimental: as §1

[12] = system: S. aureus X400; test: standard broth micro-dilution MIC; assay type: cell-based; conditions: Table 2A; strain X400
Experimental: as §1

[13] = system: S. aureus X778; test: standard broth micro-dilution MIC; assay type: cell-based; conditions: Table 2A; strain X778
Experimental: as §1

[14] = system: S. epi 270; test: standard broth micro-dilution MIC; assay type: cell-based; conditions: Table 2B; strain 270
Experimental: as §1

[15] = system: S. h. 105; test: standard broth micro-dilution MIC; assay type: cell-based; conditions: Table 2B; strain 105
Experimental: as §1

[16] = system: S. h. 415; test: standard broth micro-dilution MIC; assay type: cell-based; conditions: Table 2B; strain 415
Experimental: as §1

[17] = system: St. pneumo P1; test: standard broth micro-dilution MIC; assay type: cell-based; conditions: Table 2C; strain P1
Experimental: as §1

[18] = system: St. pyro C203; test: standard broth micro-dilution MIC; assay type: cell-based; conditions: Table 2C; strain C203
Experimental: as §1

[19] = system: E. f. 276; test: standard broth micro-dilution MIC; assay type: cell-based; conditions: Table 2C; strain 276
Experimental: as §1

[20] = system: E. gall. 245; test: standard broth micro-dilution MIC; assay type: cell-based; conditions: Table 2C; strain 245
Experimental: as §1

[21] = system: M. cat M12; test: standard broth micro-dilution MIC; assay type: cell-based; conditions: Table 2C; strain M12
Experimental: as §1

[22] = system: S. aureus SA1199B; test: standard broth micro-dilution MIC; assay type: cell-based; conditions: Table 2B; strain SA1199B
Experimental: as §1

[23] = system: S. aureus SA1199R; test: standard broth micro-dilution MIC; assay type: cell-based; conditions: Table 2B; strain SA1199R
Experimental: as §1

[24] = system: S. aureus SA1199; test: standard broth micro-dilution MIC; assay type: cell-based; conditions: Table 2A; strain SA1199
Experimental: as §1

| Molecule | Resist. MIC [1] [µg/mL] | Sens. MIC [2] [µg/mL] | MIC E. f. 180-1 [3] [µg/mL] | MIC E. f. 180 [4] [µg/mL] | MIC E. f. 2041 [5] [µg/mL] | MIC EC14 [6] [µg/mL] | MIC S. aureus 446 [7] [µg/mL] | MIC S. aureus 447 [8] [µg/mL] | MIC S. aureus 489 [9] [µg/mL] | MIC S. aureus 491 [10] [µg/mL] | MIC S. aureus S13E [11] [µg/mL] | MIC S. aureus X400 [12] [µg/mL] | MIC S. aureus X778 [13] [µg/mL] | MIC S. epi 270 [14] [µg/mL] | MIC S. h. 105 [15] [µg/mL] | MIC S. h. 415 [16] [µg/mL] | MIC St. pneumo P1 [17] | MIC St. pyro C203 [18] | also measured |
| --- | --- | --- | --- | --- | --- | --- | --- | --- | --- | --- | --- | --- | --- | --- | --- | --- | --- | --- | --- |
| CC(=O)NC1C(OC2c3ccc(c(Cl)c3)Oc3cc4cc(c3OC3OC(CO)C(O)C(O)C3NCc3ccc(-c5ccccc5)cc3)Oc3ccc(cc3Cl)CC3NC(=O)C(N)c5ccc(O)c(c5)Oc5cc(O)cc(c5)C(NC3=O)C(=O)NC4C(=O)NC3C(=O)NC2C(=O)NC(C(=O)O)c2cc(O)cc(OC4OC(CO)C(O)C(O)C4O)c2-c2cc3ccc2O)OC(CO)C(O)C1O (stereo not shown) [Example 3, Deacyl Teicoplanin, N^Glu-(4-phenylbenzyl) Derivative] | > 64 | 4.6 | – | – | – | – | – | – | – | – | – | – | – | – | – | – | – | – | – |
| CC(=O)NC1C(OC2c3ccc(c(Cl)c3)Oc3cc4cc(c3OC3OC(CO)C(O)C(O)C3NCc3ccc(C=Cc5ccccc5)cc3)Oc3ccc(cc3Cl)CC3NC(=O)C(N)c5ccc(O)c(c5)Oc5cc(O)cc(c5)C(NC3=O)C(=O)NC4C(=O)NC3C(=O)NC2C(=O)NC(C(=O)O)c2cc(O)cc(OC4OC(CO)C(O)C(O)C4O)c2-c2cc3ccc2O)OC(CO)C(O)C1O (stereo not shown) [Example 7] | 19.03 | 0.76 | 1 (≈ 0.521 µM) | 64 (≈ 33.4 µM) | 0.25 (≈ 0.13 µM) | > 128 | 2 (≈ 1.04 µM) | 2 (≈ 1.04 µM) | 0.25 (≈ 0.13 µM) | 1 (≈ 0.521 µM) | 0.5 (≈ 0.261 µM) | 0.5 (≈ 0.261 µM) | 2 (≈ 1.04 µM) | 2 (≈ 1.04 µM) | 0.25 (≈ 0.13 µM) | 32 (≈ 16.7 µM) | ≤ .06 µg/mL | 0.25 µg/mL (≈ 0.13 µM) | – |
| CC(=O)NC1C(OC2c3ccc(c(Cl)c3)Oc3cc4cc(c3OC3OC(CO)C(O)C(O)C3NCc3ccc(C=Cc5ccccc5)cc3)Oc3ccc(cc3Cl)CC3NC(=O)C(NCc5ccc(C=Cc6ccccc6)cc5)c5ccc(O)c(c5)Oc5cc(O)cc(c5)C(NC3=O)C(=O)NC4C(=O)NC3C(=O)NC2C(=O)NC(C(=O)O)c2cc(O)cc(OC4OC(CO)C(O)C(O)C4O)c2-c2cc3ccc2O)OC(CO)C(O)C1O (stereo not shown) [Example 8] | 0.59 | 0.22 | 0.125 (≈ 0.0592 µM) | 0.25 (≈ 0.118 µM) | 0.125 (≈ 0.0592 µM) | > 64 | 1 (≈ 0.474 µM) | 1 (≈ 0.474 µM) | 0.25 (≈ 0.118 µM) | 1 (≈ 0.474 µM) | 2 (≈ 0.948 µM) | 1 (≈ 0.474 µM) | 2 (≈ 0.948 µM) | 1 (≈ 0.474 µM) | > 64 | > 64 | 0.25 µg/mL (≈ 0.118 µM) | 0.125 µg/mL (≈ 0.0592 µM) | MIC E. f. 276 [19]: 0.5 µg/mL (≈ 0.237 µM); MIC E. gall. 245 [20]: 0.25 µg/mL (≈ 0.118 µM); MIC M. cat M12 [21]: 0.25 µg/mL (≈ 0.118 µM); MIC S. aureus SA1199B [22]: 2 µg/mL (≈ 0.948 µM); MIC S. aureus SA1199R [23]: 0.125 µg/mL (≈ 0.0592 µM); MIC S. aureus SA1199 [24]: 4 µg/mL (≈ 1.9 µM) |
| CC(=O)NC1C(OC2c3ccc(c(Cl)c3)Oc3cc4cc(c3OC3OC(CO)C(O)C(O)C3NCc3ccc(OC(F)(F)F)cc3)Oc3ccc(cc3Cl)CC3NC(=O)C(NCc5ccc(OC(F)(F)F)cc5)c5ccc(O)c(c5)Oc5cc(O)cc(c5)C(NC3=O)C(=O)NC4C(=O)NC3C(=O)NC2C(=O)NC(C(=O)O)c2cc(O)cc(OC4OC(CO)C(O)C(O)C4O)c2-c2cc3ccc2O)OC(CO)C(O)C1O (stereo not shown) [Example 13] | 45 | 0.25 | – | 4 (≈ 1.93 µM) | – | > 128 | 1 (≈ 0.482 µM) | 1 (≈ 0.482 µM) | 0.5 (≈ 0.241 µM) | 0.5 (≈ 0.241 µM) | 1 (≈ 0.482 µM) | 0.5 (≈ 0.241 µM) | 1 (≈ 0.482 µM) | 0.5 (≈ 0.241 µM) | 32 (≈ 15.4 µM) | 8 (≈ 3.86 µM) | 0.05 µg/mL (≈ 0.0241 µM) | ≤ .06 µg/mL | – |
| CC(=O)NC1C(OC2c3ccc(c(Cl)c3)Oc3cc4cc(c3OC3OC(CO)C(O)C(O)C3NCc3ccc(OC(F)(F)F)cc3)Oc3ccc(cc3Cl)CC3NC(=O)C(N)c5ccc(O)c(c5)Oc5cc(O)cc(c5)C(NC3=O)C(=O)NC4C(=O)NC3C(=O)NC2C(=O)NC(C(=O)O)c2cc(O)cc(OC4OC(CO)C(O)C(O)C4O)c2-c2cc3ccc2O)OC(CO)C(O)C1O (stereo not shown) [Example 14] | > 32 | 5.28 | 8 (≈ 4.21 µM) | > 128 | 8 (≈ 4.21 µM) | > 128 | 4 (≈ 2.11 µM) | 8 (≈ 4.21 µM) | 2 (≈ 1.05 µM) | 2 (≈ 1.05 µM) | 2 (≈ 1.05 µM) | 2 (≈ 1.05 µM) | 4 (≈ 2.11 µM) | 2 (≈ 1.05 µM) | 1 (≈ 0.526 µM) | > 128 | 1 µg/mL (≈ 0.526 µM) | 1 µg/mL (≈ 0.526 µM) | – |
| Deacyl Teicoplanin, Bis(10-undecen-1-yl) Derivative [Example 4] | 1.2 | 1.5 | – | 8 | – | > 128 | 4 | 8 | 2 | 4 | 2 | 2 | 4 | 2 | 16 | 16 | 1 µg/mL | 0.5 µg/mL | – |
